# Results as given in patent publication US20230129359A1, “MUSCARINIC RECEPTOR 4 ANTAGONISTS AND METHODS OF USE” (Neurocrine Biosciences, Inc., priority 2020, published 2023).
# Biological target: T1, human M4 receptor (Homo sapiens, UniProt P08173)
# T1 construct: expressed in transfected cells; host or cells: CHO cells
# T1 sequence (P08173 1-479): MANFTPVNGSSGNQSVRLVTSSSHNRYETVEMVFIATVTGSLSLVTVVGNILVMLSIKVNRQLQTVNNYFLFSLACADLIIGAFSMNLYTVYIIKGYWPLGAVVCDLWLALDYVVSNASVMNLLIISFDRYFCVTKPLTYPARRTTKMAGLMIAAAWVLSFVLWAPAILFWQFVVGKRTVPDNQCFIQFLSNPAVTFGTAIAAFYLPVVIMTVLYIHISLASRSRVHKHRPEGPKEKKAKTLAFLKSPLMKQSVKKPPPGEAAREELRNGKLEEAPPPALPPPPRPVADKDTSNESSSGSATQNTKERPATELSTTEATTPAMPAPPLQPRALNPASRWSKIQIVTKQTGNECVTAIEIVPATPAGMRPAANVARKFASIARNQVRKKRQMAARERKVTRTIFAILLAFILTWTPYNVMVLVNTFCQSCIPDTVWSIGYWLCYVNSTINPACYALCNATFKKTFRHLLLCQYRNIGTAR
# Experiment: Radioligand ([3H]N-methylscopolamine) binding assay, membranes from CHO cells expressing human M4 receptor
# Details: Ki against human M4 receptor; membranes from CHO cells; tritiated N-methylscopolamine 1.5 nM; read-out: K
# Method in brief: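 Ki values derive from displacement of tritiated N-methylscopolamine (1.5 nM) from human M4 receptor in CHO membranes. Membranes, radioligand and twelve-point compound series were incubated together at 37 °C for 90 minutes in pH 7.4 HEPES/NaCl/MgCl2/EDTA buffer. Rapid vacuum filtration over polyethylenimine-pretreated filters was followed by radioactivity counting.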
row,SMILES,Ki [nM]
1,"C[C@@H]1CN(c2ncc(F)cn2)C[C@H](C)N1C(=O)NC1CC2(C1)CN(Cc1ccccc1)C2 [Compound 250, (2R,6S)-N-{2-benzyl-2-azaspiro[3.3]heptan-6-yl}-4-(5-fluoropyrimidin-2-yl)-2,6-dimethylpiperazine-1-carboxamide]",100 to 1000
2,"C[C@@H]1CN(c2nc3ccc(F)cc3o2)C[C@H](C)N1C(=O)OC1CC2(C1)CN(Cc1ccccc1)C2 [Compound 444, 2-benzyl-2-azaspiro[3.3]heptan-6-yl (2R,6S)-4-(6-fluoro-1,3-benzoxazol-2-yl)-2,6-dimethylpiperazine-1-carboxylate]",10 to 100
3,"[2H]c1c([2H])c([2H])c(C([2H])([2H])N2CC3(CC(OC(=O)N4[C@H](C)CN(c5cnc(C(F)(F)F)cn5)C[C@@H]4C)C3)C2)c([2H])c1[2H] [Compound 388, 2-[(^2H5)phenyl(^2H2)methyl]-2-azaspiro[3.3]heptan-6-yl (2R,6S)-2,6-dimethyl-4-[5-(trifluoromethyl)pyrazin-2-yl]piperazine-1-carboxylate]",10 to 100
4,"C[C@@H]1CN(c2ncc3ccccc3n2)[C@@H](C)CN1C(=O)NC1CC2(C1)CN(Cc1ccccc1)C2 [Compound 212, (2R,5S)-N-{2-benzyl-2-azaspiro[3.3]heptan-6-yl}-2,5-dimethyl-4-(quinazolin-2-yl)piperazine-1-carboxamide]",< 10
5,"COc1ccc2nc(N3C[C@@H](C)N(C(=O)NC4CC5(C4)CN(Cc4ccccc4)C5)[C@H](C)C3)cnc2c1 [Compound 219, (2R,6R)-N-{2-benzyl-2-azaspiro[3.3]heptan-6-yl}-4-(6-methoxyquinoxalin-2-yl)-2,6-dimethylpiperazine-1-carboxamide]",10 to 100
6,"O=C(OC1CC2(C1)CN(Cc1ccccc1)C2)N1CCN(c2ccc(C(F)(F)F)cc2)CC1 [Compound 125, 2-benzyl-2-azaspiro[3.3]heptan-6-yl 4-[4-(trifluoromethyl)phenyl]pipera-zine-1-carboxylate]",100 to 1000
7,"C[C@@H]1CN(c2nc3ccc(C(F)(F)F)cc3s2)C[C@@H](C)N1C(=O)NC1CC2(C1)CN(Cc1ccccc1)C2 [Compound 217, (2R,6R)-N-{2-benzyl-2-azaspiro[3.3]heptan-6-yl}-2,6-dimethyl-4-[6-(trifluoromethyl)-1,3-benzothiazol-2-yl]piperazine-1-carboxamide]",< 10
8,"[2H]c1c([2H])c([2H])c(C([2H])([2H])N2CC3(CC(NC(=O)N4[C@H](C)CN(c5ncc(C(F)(F)F)cn5)C[C@@H]4C)C3)C2)c([2H])c1[2H] [Compound 275, (2R,6S)-2,6-dimethyl-N-{2-[(^2H5)phenyl(^2H2)methyl]-2-azaspiro[3.3]heptan-6-yl}-4-[5-(trifluoromethyl)pyrimidin-2-yl]piperazine-1-carboxamide]",< 10
9,"C[C@@H]1CN(c2ccc(OC(F)(F)F)c(C#N)c2)CCN1C(=O)NC1CC2(C1)CN(Cc1ccccc1)C2 [Compound 13, (2R)-N-{2-benzyl-2-azaspiro[3.3]heptan-6-yl}-4-[3-cyano-4-(trifluoromethoxy)phenyl]-2-methylpiperazine-1-carboxamide]",< 10
10,"COc1cc(N2C[C@@H](C)N(C(=O)OC3CC4(C3)CN(Cc3ccccc3)C4)[C@@H](C)C2)ccc1C#N [Compound 526, 2-benzyl-2-azaspiro[3.3]heptan-6-yl (2R,6S)-4-(4-cyano-3-methoxyphenyl)-2,6-dimethylpiperazine-1-carboxylate]",100 to 1000
11,"C[C@@H]1CN(c2cnc(C(F)(F)F)cn2)CCN1C(=O)NC1CC2(C1)CN(Cc1ccc(F)cc1)C2 [Compound 270, (2R)-N-{2-[(4-fluorophenyl)methyl]-2-azaspiro[3.3]heptan-6-yl}-2-methyl-4-[5-(trifluoromethyl)pyrazin-2-yl]piperazine-1-carboxamide]",10 to 100
12,"C[C@@H]1CN(c2cc(F)c(F)c(F)c2)C[C@H](C)N1C(=O)NC1CC2(C1)CN(Cc1ccccc1)C2 [Compound 45, (2R,6S)-N-{2-benzyl-2-azaspiro[3.3]heptan-6-yl}-2,6-dimethyl-4-(3,4,5-trifluroophenyl)piperazine-1-carboxamide]",< 10
13,"CC(c1ccccc1)N1CC2(CC(NC(=O)N3[C@H](C)CN(c4ncc(C(F)(F)F)cn4)C[C@@H]3C)C2)C1 (stereo partly drawn) [Compound 334, (2R,6S)-2,6-dimethyl-N-[2-(1-phenylethyl)-2-azaspiro[3.3]heptan-6-yl]-4-[5-(trifluoromethyl)pyrimidin-2-yl]piperazine-1-carboxamide]",< 10

# The next lines start with the values.
row,Ki [nM],SMILES
1,< 10,"C[C@@H]1CN(c2cnc(OC(F)(F)F)cn2)C[C@H](C)N1C(=O)OC1CC2(C1)CN(Cc1ccccc1)C2 [Compound 202, 2-benzyl-2-azaspiro[3.3]heptan-6-yl (2R,6S)-2,6-dimethyl-4-[5-(trifluoromethoxy)pyrazin-2-yl]piperazine-1-carboxylate]"
2,< 10,"COC(=O)c1cnc(N2C[C@@H](C)N(C(=O)OC3CC4(C3)CN(Cc3ccccc3)C4)[C@H](C)C2)nc1C(F)(F)F [Compound 171, methyl 2-[(3R,5R)-4-[({2-benzyl-2-azaspiro[3.3]heptan-6-yl}oxy)carbonyl]-3,5-dimethylpiperazin-1-yl]-4-(trifluoromethyl)pyrimidine-5-carboxylate]"
3,10 to 100,"C[C@@H]1CN(c2cnc(C(F)(F)F)cn2)CCN1C(=O)OC1CC2(C1)CN(Cc1ccc(F)cc1)C2 [Compound 458, 2-[(4-fluorophenyl)methyl]-2-azaspiro[3.3]heptan-6-yl (2R)-2-methyl-4-[5-(trifluoromethyl)pyrazin-2-yl]piperazine-1-carboxylate]"
4,10 to 100,"C[C@H]1CN(C(=O)NC2CC3(C2)CN(Cc2ccccc2)C3)CCN1c1ncc(C(F)(F)F)cn1 [Compound 6, (3S)-N-{2-benzyl-2-azaspiro[3.3]heptan-6-yl}-3-methyl-4-[5-(trifluoromethyl)pyrimidin-2-yl]piperazine-1-carboxamide]"
5,< 10,"C[C@@H]1CN(c2ccc(C(F)(F)F)cc2)C[C@H](C)N1C(=O)OC1CC2(C1)CN(Cc1ccccc1)C2 [Compound 514, 2-benzyl-2-azaspiro[3.3]heptan-6-yl (2R,6S)-2,6-dimethyl-4-[4-(trifluoromethyl)phenyl]pipera-zine-1-carboxylate]"
6,100 to 1000,"COC(=O)c1ccc(CN2CC3(CC(NC(=O)N4[C@H](C)CN(c5ncc(C(F)(F)F)cn5)C[C@@H]4C)C3)C2)cc1 [Compound 320, methyl 4-[(6-{[(2R,6S)-2,6-dimethyl-4-[5-(trifluoromethyl)pyrimidin-2-yl]piperazine-1-carbonyl]amino}-2-azaspiro[3.3]heptan-2-yl)methyl]benzoate]"
7,10 to 100,"C[C@@H]1CN(c2ncc(C(F)(F)F)cn2)C[C@H](C)N1C(=O)OC1CC2(C1)CN(CC1CC3C=CC1C3)C2 (stereo partly drawn) [Compound 155, 2-{bicyclo[2.2.1]hept-5-en-2-ylmethyl}-2-azaspiro[3.3]heptan-6-yl (2R,6S)-2,6-dimethyl-4-[5-(trifluoromethyl)pyrimidin-2-yl]piperazine-1-carboxylate]"
8,< 10,"C[C@@H]1CN(c2nc3ccc(C(F)(F)F)cc3o2)[C@@H](C)CN1C(=O)OC1CC2(C1)CN(Cc1ccccc1)C2 [Compound 430, 2-benzyl-2-azaspiro[3.3]heptan-6-yl (2R,5S)-2,5-dimethyl-4-[6-(trifluoromethyl)-1,3-benzoxazol-2-yl]piperazine-1-carboxylate]"
9,< 10,"C[C@@H]1CN(c2nc3ccc(C(F)(F)F)cc3s2)C[C@H](C)N1C(=O)OC1CC2(C1)CN(Cc1ccccc1)C2 [Compound 364, 2-benzyl-2-azaspiro[3.3]heptan-6-yl (2R,6S)-2,6-dimethyl-4-[6-(trifluoromethyl)-1,3-benzothiazol-2-yl]piperazine-1-carboxylate]"
10,10 to 100,"C[C@@H]1CN(c2cnc(C(F)(F)F)cn2)[C@@H](C)CN1C(=O)NC1CC2(C1)CN(Cc1ccc(Cl)cc1)C2 [Compound 260, (2R,5S)-N-{2-[(4-chlorophenyl)methyl]-2-azaspiro[3.3]heptan-6-yl}-2,5-dimethyl-4-[5-(trifluoromethyl)pyrazin-2-yl]piperazine-1-carboxamide]"
11,100 to 1000,"C[C@@H]1CN(c2ncc(F)cn2)C[C@@H](C)N1C(=O)OC1CC2(C1)CN(Cc1ccccc1)C2 [Compound 158, 2-benzyl-2-azaspiro[3.3]heptan-6-yl (2R,6R)-4-(5-fluoropyrimidin 2-yl)-2,6-dimethylpiperazine-1-carboxylate]"
12,10 to 100,"C[C@@H]1CN(c2nc3ncc(C(F)(F)F)cc3s2)[C@@H](C)CN1C(=O)OC1CC2(C1)CN(Cc1ccccc1)C2 [Compound 433, 2-benzyl-2-azaspiro[3.3]heptan-6-yl (2R,5S)-2,5-dimethyl-4-[6-(trifluoromethyl)-[1,3]thiazolo[4,5-b]pyridin-2-yl]piperazine-1-carboxylate]"
13,< 10,"C[C@@H]1CN(c2ncc(C(F)(F)F)cn2)[C@@H](C)CN1C(=O)OC1CC2(C1)CN(Cc1ccc(Cl)cc1)C2 [Compound 482, 2-[(4-chlorophenyl)methyl]-2-azaspiro[3.3]heptan-6-yl (2R,5S)-2,5-dimethyl-4-[5-(trifluoromethyl)pyrimidin-2-yl]piperazine-1-carboxylate]"
